Values quoted from earlier work as cited in patent publication US6482908B1, “Template-directed ring-closing metathesis and ring-opening metathesis polymerization of functionalized dienes” (California Institute of Technology, priority 1997, dated 2002).

System: cell attachment and spreading

Gly-Arg-Gly-Asp-Tyr (GRGDY; printed: Gly-Arg-Gly-Asp-Tyr) [oligopeptide immobilized onto glass substrate, literature adhesion agent]
cell adhesion activity of immobilized peptide (immobilized onto a poorly adhesive glass substrate): extremely potent adhesion agent | minimum surface density necessary to induce normal cell attachment and spreading (peptide immobilized onto poorly adhesive glass substrate, ~140 nm between peptides): 10 fmol/cm^2
